Source: patent publication US12416009B2, “Methods and compositions for the modification of plants” (Flagship Pioneering Innovations VI, LLC, priority 2018, dated 2025)

Columns and labels:
[1] = system: Arabidopsis thaliana seedlings; assay: Cytotoxicity of free DOX and DOX-loaded PMPs in Arabidopsis thaliana seedlings; type: in vivo, Arabidopsis thaliana Col-0; settings: 100 μM DOX dose; 24 hours exposure, then 3 days; 7-day old seedlings
Description: Grapefruit PMPs were produced and loaded with doxorubicin as described in Examples 16a and 16b. Wild type Arabidopsis thaliana Col-0 seeds were obtained from the ABRC, surface sterilized with 50% bleach, stratified for 1-3 d at 4° C., and germinated on half-strength (0.5×) Murashige and Skoog (MS) medium supplemented with 0.5% sucrose, 2.5 mM MES, pH 5.6, containing 0.8% agar, with a photoperiod of 16 h light 23° C./8 h dark 21° C.
To test whether PMPs can deliver a small molecule cargo in planta, 7-day old Arabidopsis thaliana seedlings were transferred to 0.5× liquid MS medium in a 24 well plate (1 seedling per well), and treated with free DOX or DOX-loaded PMPs with an encapsulated DOX dose of 0 (negative control), 25 μM, 50 μM and 100 μM. The plate was covered with aluminum foil and incubated for 24 hours. DOX-containing medium was removed, the seedlings were washed two times with ½×MS medium, and fresh medium was added. Seedlings were incubated for an additional 3 days under a normal photoperiod (16 h light 23° C./8 h dark 21° C.). Next, seedlings were removed from the plate and towel-dried for imaging and cytotoxicity was assessed by analyzing leaf vigor, leaf color and root length. Cytotoxicity is defined by shortening of the roots, loss of leaf vigor, and leaf discoloration (yellow instead of green) when compared to an untreated seedling control.

plants = settings: Culiarez-Mac et al, Plant Growth Regulation 1987; cited from earlier work
Glycine max cell line = assay: Uptake of AF488-labeled lemon PMPs by plant cells (epifluorescence microscopy); type: cell-based; settings: 1×10^12 AF488-PMPs/mL, 2 hours at 24° C.
Description: (§1) Plant cell lines were purchased from the Deutsche Sammlung von Mikroorganismen und Zellkulturen (DSMZ) (Glycine max, #PC-1026; Triticum aestivum, #PC-998) and ABRC (Zea mays, Black Mexican sweet (BMS), and were grown in baffled vented 250 mL flasks in the dark, at 24° C. with agitation (110 rpm). Glycine max and Triticum aestivum were grown in 3.2 g/L Gamborg's B-5 Basal Medium with Minimal Organics supplemented (G5893, Millipore Sigma) pH 5.5, supplemented with 2% sucrose, and 2 mg/L 2,4-dichlorophenoxyacetic acid (2,4D) (D7299, Millipore Sigma) according to the supplier's instructions. BMS cells were grown in Murashige and Skoog basal medium pH 5.8, containing 4.3 g/L Murashige and Skoog Basal Salt Mixture (Sigma M5524), 2% sucrose (S0389, Millipore Sigma), 1×MS vitamin solution (M3900, Millipore Sigma), 2 mg/L 2,4-dichlorophenoxyacetic acid (D7299, Millipore Sigma) and 250 ug/L thiamine HCL (V-014, Millipore Sigma).
(§2) For treatment with AF488-PMPs, 5 mL of the cell suspensions was taken to determine the percent Pack Cell Volume (PCV). The PCV is defined as the volume of cells divided by the total volume of the cell culture aliquot, and expressed as a percentage. Cells were centrifuged for 5 min at 3900 rpm, and the volume of the cell pellet was determined. The % PCV for BMS, Glycine max, and Triticum aestivum were 20%, 15%, and 18%, respectively. For the uptake experiment, the % PCV of the cultures was adjusted to 2%, by diluting cells in their appropriate medium. Next, 125 μl of the plant cell suspensions was added to a 24 well plate, and duplicate samples were treated with 125 μl MES buffer (200 mM MES+10 mM NaCl, pH6) alone (negative control), AF488 dye only (dye only control) or a final concentration of 1×10^12 AF488-PMPs/mL diluted in MES buffer to 125 μl. Cells were incubated for 2 hours at 24° C. in the dark, washed three times with 1 mL MES buffer to remove AF488-PMPs or free dye that had not been taken up, and resuspended in 300 μL of MES buffer for imaging on an epifluorescence microscope (EVOS FL Auto 2, Invitrogen).

[2] = system: Triticum aestivum cell line; assay: as above; type: cell-based; settings: 1×10^12 AF488-PMPs/mL, 2 hours at 24° C.
Description: as §1, §2

[3] = system: Zea mays Black Mexican sweet (BMS) cells; assay: as above; type: cell-based; settings: 1×10^12 AF488-PMPs/mL, 2 hours at 24° C.
Description: as §1, §2

Molecule | cytotoxicity (root shortening, loss of leaf vigor, leaf discoloration) [1] | cytotoxicity in plants (plants) | AF488 fluorescence signal in cells (PMP uptake) (Glycine max cell line) | AF488 fluorescence signal in cells (PMP uptake) [2] | AF488 fluorescence signal in cells (PMP uptake) [3]
COc1cccc2c1C(=O)c1c(O)c3c(c(O)c1C2=O)C[C@@](O)(C(=O)CO)C[C@@H]3O[C@H]1C[C@H](N)[C@H](O)[C@H](C)O1 [free DOX, doxorubicin] | root shortening and leaf discoloration | cytotoxic in plants | – | – | –
Alexa Fluor 488® NHS Ester [AF488 dye only] | – | – | no detectable fluorescence | no detectable fluorescence | no detectable fluorescence
